How the values were obtained:
[1] = Zeta-potential analysis by dynamic light scattering (Zetasizer Nano-ZS); type: physicochemical; conditions: dispersed in distilled water, triplicate, several peaks printed with their share (%)
Procedure: To analyze the binding characteristics in the complexes of Examples 1 and 2, particle size analysis and zeta-potential analysis were performed. Chondroitin sulfate (CS), arginine (R), and glutamine (Q), a simple mixture of chondroitin sulfate and arginine or glutamine (CS/R or CS/Q mixture), and a complex of chondroitin sulfate and arginine or glutamine (CS-R or CS-Q complex) were analyzed by dynamic light scattering using a Zetasizer Nano-ZS (Malvern Instruments, Worcester, UK) to measure the particle size (effective dynamic diameter), particle size distribution and zeta potential of the samples dispersed on a colloid. Samples for the measurements were prepared by being dispersed in distilled water, and an automatic temperature-controlled cell with a scattering angle of 90° and software provided by the manufacturer were used. After measurement was conducted in triplicate for each sample, a zeta-potential value was calculated, and the results are shown in the following Table 1.

[2] = system: hyaluronic acid production in human dermal fibroblasts; assay: Hyaluronic acid synthesis effect in vitro (Hyaluronan ELISA); type: cell-based; conditions: 24 hours, concentrations of Table 2, (sample − negative control) ÷ negative control × 100
Excerpt: (§1) For the evaluation of in vitro skin improvement efficacy, chondroitin sulfate (CS), glutamine (Q), arginine (R), Examples 1 and 2 (CS-R complex and CS-Q complex), and Comparative Examples 1 and 2 (CS/R mixture and CS/Q mixture) were used as culture solutions, and were ultimately included at the concentrations shown in the following Table 2 in each evaluation.
To compare the skin moisturizing effects of chondroitin sulfate (CS), arginine (R), and glutamine (Q), a simple mixture of chondroitin sulfate and an amino acid (CS/AA mixture), and a chondroitin sulfate-amino acid complex (CS-AA complex), human dermal fibroblasts were used to confirm whether the production of hyaluronic acid was increased.
Specifically, fibroblasts were cultured in a DMEM medium containing 10% FBS until the cells occupied 80% of the culture dish. Subsequently, the cells were treated with each sample at a predetermined concentration according to Table 2 for 24 hours, and then the concentration of hyaluronic acid was measured using a Hyaluronan ELISA kit (R&D systems, catalog No. DY3614-05).

[3] = system: Raw 264.7 cells (NO production); assay: Suppression of NO production in LPS-treated macrophages (Griess); type: cell-based, mouse; conditions: Raw264.7 cells, sample 30 minutes then 500 ng/ml LPS 18 hours, concentrations of Table 2
Excerpt: as §1
To compare the skin soothing effects of chondroitin sulfate (CS), arginine (R), and glutamine (Q), a simple mixture of chondroitin sulfate and an amino acid (CS/AA mixture), and a chondroitin sulfate-amino acid complex (CS-AA complex), mouse macrophage cell line Raw 264.7 cells (ATCC, catalog No. CRL-2788) was used to confirm whether the production of NO was suppressed.
Specifically, Raw264.7 cells were aliquoted at 1 to 2×10^5 cells/ml in a 24-well tissue culture plate and cultured in a DMEM medium containing 10% FBS for 24 hours. The culture was carried out in a 5% CO2 incubator. Subsequently, the medium was replaced with a serum-free medium, and the cells were starved for 12 hours, and then treated with each sample at a predetermined concentration according to Table 2 for 30 minutes. After the sample treatment was completed, the cells were treated with 500 ng/ml lipopolysaccharides (LPS, SIGMA, catalog No. L43901) and then cultured for an additional 18 hours. Next, the culture supernatant was taken, transferred to a 96-well tissue culture plate and reacted with GREISS reagent (SIGMA, catalog No. G4410) at room temperature for 15 minutes, and then absorbance was measured at 540 nm using an ELISA reader. Thereafter, NO was quantified using the measured absorbance, and the reduction rate of NO produced in the experimental group compared to the positive control treated with 20 μg/ml of L-NMMA was calculated as (the value of the positive control−the value of the sample treatment group)÷the value of the negative control×100, which was used as a NO production suppression ability.

[4] = system: type I collagen (procollagen type 1-C propeptide, PICP) in human fibroblasts; assay: Collagen synthesis effect in vitro (PICP EIA); type: cell-based; conditions: 48 hours, concentrations of Table 2, (sample − negative control) ÷ negative control × 100
Excerpt: as §1
To compare the wrinkle amelioration effects of chondroitin sulfate (CS), arginine (R), and glutamine (Q), a simple mixture of chondroitin sulfate and an amino acid (CS/AA mixture), and a chondroitin sulfate-amino acid complex (CS-AA complex), the effect of promoting the synthesis of type I collagen was confirmed using skin fibroblasts. For the evaluation, procollagen type 1-C propeptide (PICP), which is typically synthesized in the highest amount in fibroblasts, was quantified.
Specifically, human fibroblasts were aliquoted at 1×10^5 cells/well in a 48-well culture plate and cultured in a Dulbecco's Modified Eagle's Medium (DMEM, Gibco) medium containing 10% fetal bovine serum (FBS) for 24 hours. Subsequently, the medium was replaced with a serum-free DMEM medium containing 2 wt % of each culture solution according to Table 2 to treat cells with an analyte for 48 hours. Next, 20 μl of the culture supernatant was taken to measure the degree of collagen increase at each concentration at 450 nm using a Procollagen Type-1-C-peptide Enzyme Immuno Assay (PICP EIA) kit.

human fibroblasts = assay: Cell activity effect in vitro (CCK-8); type: cell-based; conditions: 48 hours, CCK-8, concentrations of Table 2, (sample − negative control) ÷ negative control × 100, in %
Excerpt: as §1
To compare the effects of chondroitin sulfate (CS), arginine (R), and glutamine (Q), a simple mixture of chondroitin sulfate and an amino acid (CS/AA mixture), and a chondroitin sulfate-amino acid complex (CS-AA complex) on skin cell activity, human fibroblast culture was used to confirm whether cell activity was increased.
Specifically, human fibroblasts were aliquoted at 5×10^3 cells/well and cultured in a DMEM medium containing 10% FBS for 24 hours. Subsequently, the culture medium was removed, and the cells were treated with each sample at a predetermined concentration according to Table 2 for 48 hours. Then, a reagent provided in a CCK-8 kit (DOJINDO, Cell Counting Kit-8, catalog No. CK04) was added, the resulting mixture was incubated for 4 hours, and then absorbance was measured at 450 nm using an ELISA reader.

[5] = system: Zonula Occludens-1 (ZO-1) in HaCaT cells; assay: mRNA expression of tight junction protein ZO-1 (real-time PCR); type: cell-based, human; conditions: 24 hours, concentrations of Table 2, (sample − negative control) ÷ negative control × 100
Excerpt: as §1
To compare the skin barrier recovery effects of chondroitin sulfate (CS), glutamine (Q), a simple mixture of chondroitin sulfate and glutamine (CS/Q mixture), and a chondroitin sulfate-glutamine complex (CS-Q complex), it was confirmed whether the expression of Zonula Occludens-1 (ZO-1), one of the proteins that make up the tight junctions at the intercellular junctions in the skin barrier, was increased.
Specifically, human keratinocyte cell line HaCaT cells were first cultured at 37° C. in a 5% CO2 environment in a DMEM medium (Gibco, Waltham, MA, USA) supplemented with 10% fetal bovine serum (FBS, Gibco, Waltham, MA, USA), […] penicillin, and […] streptomycin. […] The concentration of the extracted RNA was quantified, and 1 μg of RNA was reacted with a cDNA synthesis kit (ET21100, PhileKorea Technology) at 42° C. for 30 minutes and 72° C. for 10 minutes to synthesize cDNA. […]

[6] = system: Staphylococcus epidermidis; assay: Growth rate of beneficial skin bacterium (optical density); type: cell-based; conditions: TSB medium, 30 to 37° C., 6 to 18 hours, concentrations of Table 2; relative to negative control
Procedure: To evaluate the prebiotic ability of Example 2, the degrees of enhancement in beneficial bacteria among the skin resident flora were compared before and after the CS or Example 2 treatment. Staphylococcus epidermidis was selected as a representative beneficial bacterium, and the growth rates of the beneficial bacterium were compared before and after treatment with the materials.
The growth rate of the beneficial bacterium was evaluated by the following method. A sterile liquid medium was prepared using a commercial tryptic soy broth (TSB, DFICO) medium, and a glycerol stock of S. epidermidis was inoculated into the sterile liquid TSB medium and pre-cultured at 30 to 37° C. for 6 to 18 hours. Such a pre-culture was performed once to twice. Thereafter, chondroitin sulfate (CS) and Example 2 were added to a sterile liquid TSB medium at each predetermined concentration according to Table 2, and the preculture solution was inoculated to culture cells at 30 to 37° C. for 6 to 18 hours.
After culture, the optical density (OD) immediately after inoculation and the optical density during the stationary phase of growth were measured, and the ratio of these values (growth rate) was compared. […] After the evaluation was carried out three times, the average growth rate, the standard deviation, and the like were calculated, and then the significance was verified by a t-test.

Compound | Zeta potential (mV) [1] | Hyaluronic acid synthesis ability [2] | NO production suppression ability [3] | Collagen type 1 synthesis ability [4] | Cell activity ability (human fibroblasts) | ZO-1 expression ability [5] | S. epidermidis growth rate (%) [6]
N=C(N)NCCC[C@H](N)C(=O)O [Arginine (R), arginine] | −4 mV | −2.1 | 30.3 | −12.58 | −12.79 | – | –
NC(=O)CC[C@H](N)C(=O)O [Glutamine (Q), glutamine] | – | 2.8 | 20.4 | 2.78 | −11.66 | 11.0 | –
CC1=C(/C=C/C(C)=C/C=C/C(C)=C/C(=O)O)C(C)(C)CCC1 [Retinoic acid] | – | 16.8 | – | – | – | – | –
TGF-b | – | – | – | 21.15 | – | – | –
chondroitin sulfate [Chondroitin sulfate (CS)] | −18 mV | 1.8 | 25.6 | 3.55 | 8.74 | 25.0 | 6.081%
